{"source": "patent US20260357349A1", "about": "“METHODS OF IDENTIFYING AND TREATING CANCER” (Agency for Science, Technology and Research, priority 2022, published 2026)", "key": {"[1]": {"system": "786-O cells", "assay": "Colony formation, 786-O isogenic cells", "format": "cell-based, human", "procedure": "(§1) Colony formation of parental (WT) or PBRM1 knockout (KO) 786-O cells expressing shRNA against non-targeting control (NC), RELA, or NFKB1 cultured with a) 10% or b) 2% serum. c) Gene expression changes of NF-κB target genes in 786-O cells treated with 0.006 μM bortezomib (BTZ) or 0.6 µM Bay 11-7085 for 24 hours (n=3 technical replicates). * p-value<0.05 (two-sided t-test). […] A positive log fold change refers to gain in bortezomib treatment over DMSO. g) Colony formation of 786-O isogenic cells and h) NCC432 isogenic cells treated with bortezomib for a week. Tumor formation of isogenic 786-O cells (i) and NCC432 cells (j) treated with PBS control or 0.5 mg/kg bortezomib (BTZ) in NSG mice. (n=10 tumors per group for 786-O, and n=16 tumors for NCC432 PBS EV group and 12 tumors for NCC432 PBS PBRM1 group and 14 tumors for both NCC432 EV and PBRM1 BTZ groups). Data are presented as mean values+/−SEM. k) Model for the study.\nData are presented as median+/−25%. […] Data are presented as mean values+/−SD. e) Tornado plots of RELA and SMARCA4 ChIP-seq signals in parental 786-0 or PBRM1-KO 786-O cells treated with DMSO or 0.005 μM bortezomib for 9 hours. f) Kaplan-Meier curves of NSG mice bearing 786-O isogenic cells treated with PBRM1 control or 0.5 mg/kg bortezomib (WT: n=10 PBS arm, median survival=39 days; n=10 bortezomib arm, median survival=52 days, HR=4.1, p=3E-6, log rank test; KO: n=10 PBS arm, median survival=35 days, n=10 bortezomib arm, median survival=66 days, HR=4.1, p=3E-6, log rank test). g) Kaplan-Meier curves of NSG mice bearing NCC432 isogenic cells treated with PBRM1 control or 0.5 mg/kg bortezomib (EV: n=16 PBS arm, median survival=42 days; n=14 bortezomib arm, median survival=49 days, HR=2.5, p=0.0009, log rank test; PBRM1: n=12 PBS arm, median survival=55 days; n=14 bortezomib arm, median survival=58 days, HR=1.2, p=0.5, log rank test). h) 786-O PBRM1 WT or KO cells were screened against the high-specific SGC epigenetic probe collection and cell viability was measured by colony formation after 1 week of treatment relative to DMSO control. […]"}, "[2]": {"system": "786-O tumors", "assay": "Tumor formation and survival of NSG mice bearing 786-O isogenic cells", "format": "in vivo", "settings": "for median survival: 0.5 mg/kg bortezomib arm n=10; for HR: bortezomib vs PBS, p=3E-6, log rank test", "procedure": "as §1\nData are presented as median+/−25%. Lower whisker is smallest observation greater than or equal to 25% quantile-1.5*interquantile range (IQR). Upper whisker represents the largest observation less than or equal to 75%+1.5*IQR. Amount of normalized RELA protein in the c) input or d) co-immunoprecipitated with SMARCA4 from 3 independent runs. Data are presented as mean values+/−SD. e) Tornado plots of RELA and SMARCA4 ChIP-seq signals in parental 786-0 or PBRM1-KO 786-O cells treated with DMSO or 0.005 μM bortezomib for 9 hours. f) Kaplan-Meier curves of NSG mice bearing 786-O isogenic cells treated with PBRM1 control or 0.5 mg/kg bortezomib (WT: n=10 PBS arm, median survival=39 days; n=10 bortezomib arm, median survival=52 days, HR=4.1, p=3E-6, log rank test; KO: n=10 PBS arm, median survival=35 days, n=10 bortezomib arm, median survival=66 days, HR=4.1, p=3E-6, log rank test). g) Kaplan-Meier curves of NSG mice bearing NCC432 isogenic cells treated with PBRM1 control or 0.5 mg/kg bortezomib (EV: n=16 PBS arm, median survival=42 days; n=14 bortezomib arm, median survival=49 days, HR=2.5, p=0.0009, log rank test; PBRM1: n=12 PBS arm, median survival=55 days; n=14 bortezomib arm, median survival=58 days, HR=1.2, p=0.5, log rank test). h) 786-O PBRM1 WT or KO cells were screened against the high-specific SGC epigenetic probe collection and cell viability was measured by colony formation after 1 week of treatment relative to DMSO control.\nAll animal studies were conducted in compliance with animal protocols approved by Institutional Animal Care and Use Committee (IACUC) of Singapore. Female NOD/SCID mice (8-10 week old) were implanted subcutaneously with 1×10^6 786-0 cells with either wildtype PBRM1 or PBRM1 knocked out subcutaneously. Male NSG mice (The Jackson laboratory) were implanted with 1×10^6 A498, NCC2112 or NCC432 with or without PBRM1. Tumor volume was monitored every 3-4 days. Tumor volume was calculated as (length×width×width)×π/6. Animals were sacrificed when the tumor volume exceeded 2000 mm^3.\nBortezomib […] was given twice weekly (day1, day 4) to male NSG mice (The Jackson laboratory) via the tail vein. Tumor volume and body weight were monitored every 3-4 days."}}}
{"smiles": "CC(C)C[C@H](NC(=O)[C@H](Cc1ccccc1)NC(=O)c1cnccn1)B(O)O", "note": "[bortezomib]", "values": [{"measurement": "reducing colony formation", "setting": "[1]; 786-O with and without PBRM1, vs DMSO", "result": "reducing colony formation"}, {"measurement": "reduction of colony formation, PB1-deficient vs PB1-proficient isogenic cells", "setting": "[1]; 786-O, a week", "result": "preferential reduction of colony formation"}, {"measurement": "survival, mice bearing PB1-deficient vs PB1-proficient cells", "setting": "[2]; 0.5 mg/kg bortezomib", "result": "survived for a longer duration"}, {"measurement": "tumor response, PB1-deficient vs PB1-proficient isogenic cells", "setting": "[2]; 0.5 mg/kg bortezomib, NSG mice", "result": "responded better"}, {"measurement": "median survival", "setting": "[2]; 786-O KO, PBS arm 35 days", "result": 66, "unit": "days"}, {"measurement": "HR", "setting": "[2]; 786-O KO", "result": 4.1}, {"measurement": "median survival", "setting": "[2]; 786-O WT, PBS arm 39 days", "result": 52, "unit": "days"}, {"measurement": "HR", "setting": "[2]; 786-O WT", "result": 4.1}, {"measurement": "selectivity for PB1-deficient tumors (summary)", "setting": "[2]; 786-O and NCC432, Example 2 summary", "result": "selectively targets PB1-deficient tumors"}]}
